Laboratory results taken from patent publication US20030083323A1, “Oral use of dehydroepiandrosterone and some of its derivatives as pigmentation regulators” (priority 2000, published 2003).
Values joined by “and” are separate entries in the source; they are usually repeats but may differ in a detail not shown here. Equal values may be shown once.

Legend:
[1] = system: hair (degree of canities); experiment: Effect of oral DHEA on canities, questionnaire at end of randomized double-blind clinical study versus placebo; type: in vivo, human; details: oral DHEA 50 mg daily, 6 months
Method: The evaluation was carried out using a randomized double-blind clinical study on 140 individuals. The inclusion criteria were as follows: healthy male volunteers free of any severe pathological condition and 60 to 80 years old.
The treatment consisted, for 6 months, of a daily dose of 50 mg of DHEA, taken in the morning, in the form of a breakable tablet, for half the individuals, or of its placebo for the other half of the individuals.
At the end of the 6 months of treatment, the individuals answered a series of questions concerning the state of their hair and the effect of the treatment on various parameters, in particular regarding their degree of canities (improvement, worsening or no change in the number of white hairs).
The statistical analysis is performed with Wilcoxon tests.

human skin = experiment: Depigmenting power on the skin of DHEA administered orally, colorimetry b* (Minolta CR200 chromameter), randomized double-blind clinical study versus placebo; type: in vivo; details: oral DHEA 50 mg per day, 12 months, healthy female volunteers 60 to 80 years old; p=0.006, Wilcoxon test
Method: The evaluation was carried out using a randomized double-blind clinical study on 140 individuals. The inclusion criteria were as follows: healthy female volunteers free of any severe pathological condition and 60 to 80 years old.
The treatment consisted, for 12 months, of a daily dose of 50 mg of DHEA, taken in the morning, in the form of a breakable tablet, for half the individuals, or of a placebo for the other half of the individuals.
The skin pigmentation is measured at the start of treatment (TO) and after 12 months (T12), by colorimetry using a Minolta CR200 chromameter (Minolta, 365, route de Saint-Germain 78424 Carrières sur Seine).
This machine describes the colors in a three-dimensional space, using the system of coordinates L, a* and b* and recommended by the CIE in 1976. In this system, L* expresses the luminance or clarity of the color (0 corresponding to black and 100 to white), a is the component for separation between green (negative) and red (positive) and b*, which varies from blue (negative) to yellow (positive) expresses the pigmentation of the skin. The latter parameter was used to evaluate the change in skin color during the treatment.
The machine is calibrated on a standard “white” (surface provided with the machine) at the beginning of each day of measurement and the calibration is controlled throughout the day. […]

[2] = healthy male volunteers 60 to 80 years old, total 64

`C[C@]12CC[C@H](O)CC1=CC[C@@H]1[C@@H]2CC[C@]2(C)C(=O)CC[C@@H]12` [DHEA, dehydroepiandrosterone] was tested, and the “degree of canities: Improvement (number of individuals, number of white hairs decreased)” value [1, 2] was 5, the “degree of canities: No change (number of individuals)” value [1, 2] was 59 and the “degree of canities: Worsening (number of individuals)” value [1, 2] was “no individual experienced a worsening and 0”. For the same compound, the “overall effect on hair pigmentation versus placebo” value ([1]; difference between treatments significant, p=0.0094, Wilcoxon test) was “propigmenting effect on hair” and the “skin pigmentation (b*) compared to the placebo group” value (human skin) was “significant decrease in pigmentation”.
